In patent publication US20150344535A1, “NEUROTROPHIN-TYROSINE KINASE RECEPTOR SIGNALING” (THE UNIVERSITY OF QUEENSLAND, priority 2012, published 2015):

How the values were obtained:
[1] = test system: C7-8 spinal cord motor neurons; experiment: Motor neuron axotomy (median and ulnar nerve) in neonatal rat; assay type: in vivo; settings: four day old rat, unilateral axotomy of the ulnar nerve, FIG. 7E
Method: Median and ulnar nerve axotomy was performed on 4 day-old Wistar rat pups as previously described (Cheema et al., 1996). Peptides (c29 and vehicle only; 100 nM) were applied via a 1 mm^3 cube of pluronic gel foam that was sutured to the proximal axonal stump (Cheema et al., 1996). After 5 days the animals were perfused with a 4% solution of paraformaldehyde in phosphate buffer. Cervical spinal cords were removed, after which serial sections were cut at 40 μm, mounted onto gelatin-coated slides and stained in 0.1% cresyl violet. Details of the counting procedure have been described previously (Cheema et al., 1994).
We next investigated whether c29 could prevent motor neuron death following growth factor withdrawal in vivo using a neonatal rat axotomy model. Following unilateral median and ulnar nerve transections of postnatal day 4 (P4) rat pups, c29 or the vehicle protein transduction domain (PTD4) was applied to the proximal site of transaction in a small cube of gel foam. After a 5-day recovery, the number of surviving C7-8 spinal cord motor neurons relative to the contralateral side was determined by histological counts. Such an axotomy causes 50% of the ipsilateral motor neurons to die (Cheema et al., 1996), with control peptide treatment having no effect on this degree of cell death (FIG. 7E, F). […]

[2] = Long term potentiation (LTP) in the hippocampus in vivo; parameters: species or system mouse
Source text: In further support of this, LTP was induced in mice by standard methods, as previously described: Kameda et al. Transl Psychiatry. 2012 Jan. 31; 2:e72. Activation of latent precursors in the hippocampus is dependent on long-term potentiation. […] BDNF acting via TrkB is well established to enhance this type of synaptic activity, including specifically hippocampal late-phase LTP at CA1-CA3 synapses (as measured here), and mice with reduced BDNF secretion show deficits in this LTP (e.g. Y. Lu et al., 2008; An et al., 2008; Ninan et al., 2010). […] In FIG. 13, c29 10 mg/kg: n=3 animals; c29 5 mg/kg: n=2 animals; scrambled 10 mg/kg: n=3 animals, c57: n=2 animals.

motor neurons = experiment: Motor neuron survival in SOD1G93A mutant mice; assay type: in vivo, mouse
Method: To determine whether c29 could reduce neuron death in a motor neuron mouse model, 60 day postnatal SOD1G93A mutant mice were injected subcutaneously by osmotic pump with 5 mg/kg of TAT-c29, scrambled peptide, or the peptide vehicle. After 115 days postnatal, neuron survival in the […] was determined.

YARAAARNARAKRWNSCKQNKQGANSRPVNQTPPPEGEKL (TAT-c29 - Fusion of TAT with c29)
protection from motor neuron loss [1]: significant protection from motor neuron loss
LTP in the hippocampus ([2]; 5 mg/kg I.P, after the high frequency train): transient enhancement of LTP lasting only the first 6 minutes
LTP in the hippocampus ([2]; 10 mg/kg i.p., vs scrambled peptide- or vehicle-treated animals): enhanced LTP
enhancement of motor neuron survival (motor neurons; 5 mg/kg subcutaneously by osmotic pump from 60 days postnatal, read at 115 days postnatal): 30%
motor neuron number (motor neurons; 5 mg/kg, 115 days postnatal, equivalent of wild-type): 10 motor neurons per section per dorsal horn
